Assay results reported in patent US20240334941A1, “HIGH-EFFICACY NATURAL PRESERVATIVES” (BioVeritas, LLC, priority 2023, published 2024).

What was measured:
mold [1] = experiment: Comparative shelf-life study using pup loaves (white bread), days until visible mold
Method: Example 2. A comparative shelf-life study was performed using pup loaves by an ISO/IEC 17025:2017 certified laboratory, Great Plains Analytical Laboratory, Kansas City, MO, USA. A standard white bread dough formulation was prepared (pup loaves) for each test group. Approximately 500 grams of dry material was used to prepare 3 pup loaves per test group. Various preservatives, which were to act as mold inhibitors, were added to the doughs. The amount of preservatives added to each dough is reported as a weight percentage based on the mass of flour in the dough (“on flour”). Each mold inhibitor was thoroughly mixed into the formulation for each dough. The percentage inclusion and type of mold inhibitor on flour is outlined in Table 2. Three of the mold inhibitors were made with acetic and propionic acid produced from fermentation using a mixed consortium of naturally occurring microorganisms or microbiome using the methods previously described herein. […] The second and third comparative mold inhibitors were high-efficacy clean-label acetate/propionate mold inhibitors, with one having an acetate/propionate weight ratio of 1:1 (50 wt. % acetate/50 wt. % propionate) (BV1) and the other one having an acetate/propionate weight ratio of 1:6 (14 wt. % acetate/86 wt. % propionate) (BV2). […] The internal temperature of each loaf was recorded upon exiting the oven and prior to packaging (Table 3). In addition, water activity and pH were measured in one of the replicates for each group prior to baking using a water activity meter and a pH meter (Table 4). The product odor (similar to baseline or off odor development), color, and general appearance were evaluated daily. […]
Three sample loaves were produced using each of the inhibitor treatments, and the number of days until mold was observed was recorded for each loaf. […] No off-odors were detected over time in any of the treatments.

[2] = Dough pH out of the mixer (Example 6); assay type: physicochemical
Method: Chemical testing included the evaluation of pH on the dough out of the mixer (Table 15). Measurement for pH was made using a pH meter. A bake score, height, and volume were recorded for each test group. The bake score examined the crust color, loaf symmetry, uniformity of the break and shred, crumb texture, crumb grain, crumb color, taste, and aroma. The pup loaves were evaluated for visible mold every day for the shelf-life portion of the study. A photograph of the visible mold was taken the day it was detected. The sensory analysis consisted of a quantitative descriptive analysis and a ranking performed by a trained panel. […] The descriptive analysis covered the crumb texture and flavor of the test groups. The sensory analysis was performed on Days 3, 6, 9, 12, and 15. No sensory analysis was performed on bread that had visible mold.
The temperature of the loaves out of the oven and prior to packaging were recorded in Table 14. Dough was removed from the mixing bowl and then analyzed for pH.

[3] = Water activity and pH of bread dough prior to baking; assay type: physicochemical
Method: Example 2. A comparative shelf-life study was performed using pup loaves by an ISO/IEC 17025:2017 certified laboratory, Great Plains Analytical Laboratory, Kansas City, MO, USA. A standard white bread dough formulation was prepared (pup loaves) for each test group. Approximately 500 grams of dry material was used to prepare 3 pup loaves per test group. Various preservatives, which were to act as mold inhibitors, were added to the doughs. The amount of preservatives added to each dough is reported as a weight percentage based on the mass of flour in the dough (“on flour”). Each mold inhibitor was thoroughly mixed into the formulation for each dough. The percentage inclusion and type of mold inhibitor on flour is outlined in Table 2. Three of the mold inhibitors were made with acetic and propionic acid produced from fermentation using a mixed consortium of naturally occurring microorganisms or microbiome using the methods previously described herein. […] The second and third comparative mold inhibitors were high-efficacy clean-label acetate/propionate mold inhibitors, with one having an acetate/propionate weight ratio of 1:1 (50 wt. % acetate/50 wt. % propionate) (BV1) and the other one having an acetate/propionate weight ratio of 1:6 (14 wt. % acetate/86 wt. % propionate) (BV2). […] After mixing, the dough was divided into disposable bread pans and allowed to ferment for 3 hours at 86±1° F. and 60% relative humidity, proofed for 55 minutes at 109±1° F. and 90% humidity, and baked for 15 minutes at 425±1° F. This procedure was repeated for each test group for a total of 30 loaves of bread. The internal temperature of each loaf was recorded upon exiting the oven and prior to packaging (Table 3). In addition, water activity and pH were measured in one of the replicates for each group prior to baking using a water activity meter and a pH meter (Table 4). The product odor (similar to baseline or off odor development), color, and general appearance were evaluated daily. Each sample was opened and closed daily until visible mold appeared.

[4] = Water activity and pH of tortilla dough prior to baking; assay type: physicochemical
Method: After mixing the tortilla formulation ingredients with the corresponding mold inhibitor, samples of rounded dough were placed onto parchment paper and allowed to ferment for 20 minutes at 82±2° F. and 85% relative humidity. The dough was then pressed into a tortilla form, cooked, cooled, and packaged. This procedure was repeated for each test group. One replicate of dough for each group was tested prior to baking. Water activity was measured using a water activity meter. Measurements for pH were made using a pH meter. The product odor (similar to baseline or off odor development), color, and general appearance were evaluated daily. Each sample was opened and closed daily, until visible mold appeared.

mold [5] = experiment: Shelf-life study using pup loaves (Example 6), day of visible mold; conditions: ambient temperature
Method: Example 6. In another example, a comparative shelf-life and sensory study using pup loaves was performed by an ISO/IEC 17025:2017 certified laboratory, Great Plains Analytical Laboratory, Kansas City, MO. A total of seven test groups of white bread in a pup loaf formulation were prepared. […] Test groups were stored at ambient temperature for between 7 and 15 days to determine the overall efficacy of the inhibitors and compare the performance of the inhibitors in the bread formulation. Sensory analysis was performed examining the flavor and crumb texture for all samples. The studies were conducted concurrently.
A standard white bread dough formulation was prepared for each test group. Three pup loaves were prepared for each test group for the visual examination portion of the study. […] The bread was baked for 15 minutes at 425±1° F. Internal temperatures were recorded upon exiting the oven and prior to packaging. […]
Chemical testing included the evaluation of pH on the dough out of the mixer (Table 15). […] A bake score, height, and volume were recorded for each test group. […] The pup loaves were evaluated for visible mold every day for the shelf-life portion of the study. A photograph of the visible mold was taken the day it was detected. The sensory analysis consisted of a quantitative descriptive analysis and a ranking performed by a trained panel. […]

mold [6] = experiment: Comparative shelf-life study using flour tortillas, days until visible mold
Method: Example 3. A comparative shelf-life study using flour tortillas was performed by an ISO/IEC 17025:2017 certified laboratory, Great Plains Analytical Laboratory, Kansas City, MO. The purpose of this study was to compare the efficacy of preservatives, which were to act as mold inhibitors, in a tortilla formulation. A total of 10 test groups of tortillas were prepared: 9 test groups contained various mold inhibitors and one test group served as control, without a mold inhibitor (no additive). Test groups were stored at ambient temperature for 30 days to determine the overall efficacy of the inhibitors and compare the performance of the inhibitors in the tortilla formulation. […]
After mixing the tortilla formulation ingredients with the corresponding mold inhibitor, samples of rounded dough were placed onto parchment paper and allowed to ferment for 20 minutes at 82±2° F. and 85% relative humidity. […] Water activity was measured using a water activity meter. […] The product odor (similar to baseline or off odor development), color, and general appearance were evaluated daily. […]
The results for the tortilla shelf-life study comparing the preservative/mold inhibitors treatments are graphically shown in FIG. 2. Three tortilla samples were produced using each of the inhibitor treatments, and the number of days until mold was observed was recorded for each sample. […]

[7] = 0.3 wt. % on flour (order of Table 2)
[8] = 1 wt. % on flour (order of Table 2)

Row | SMILES | mold inhibitor performance (mold [1]; 0.3 wt. % on flour) | Dough pH ([2]; 0.5 wt. % mold inhibitor) | Dough pH ([2]; 0.8 wt. % mold inhibitor) | Water Activity [3, 7] | pH [3, 7] | Water Activity [4, 7] | pH [4, 7] | Day of Visible Mold (mold [5]; 0.5 wt. %) | Day of Visible Mold (mold [5]; 0.8 wt. %) | mold after day 30 up to day 45 (mold [1]; 1 wt. % on flour, bags no longer opened each day) | day visible mold developed (replicate loaves) (mold [1]; 1 wt. % on flour, stored 70-73 F, opened daily, 30-day study) | Water Activity [3, 8] | pH [3, 8] | Water Activity [4, 8] | pH [4, 8] | days on which visible mold developed (replicates) (mold [6]; 1 wt. % on flour, 68-73 F, opened daily) | mold after day 30 up to day 45 (mold [6]; 1 wt. %, remaining replicate, bags no longer opened)
1 | CCC(=O)[O-].CCC(=O)[O-].[Ca+2] [CCP, calcium propionate, reference compound] | performed similar to the natural calcium propionate (BV CP) | 5.34 | 5.53 | 0.9564 | 5.40 | 0.9502 | 6.7 | 7 days | 9 days | – | – | – | – | – | – | – | –
2 | CCC(=O)[O-].CCC(=O)[O-].[Ca+2] [BV CP, calcium propionate] | – | – | – | 0.9535 | 5.65 | 0.9548 | 6.98 | – | – | no signs of mold growth or off odor at day 45 | > 30 days | 0.9448 | 5.73 | 0.9612 | 6.87 | 30 days | > 45 days
